Reference: patent US8680148B2, “Metallo-desferrioxamine complexes and their use in the treatment of bacterial infections” (priority 2006, dated 2014)
Where two headings read alike, the source gives them in different places.

Tests used:
Pseudomonas aeruginosa [1] = test: Minimal inhibitory concentration on planktonic Pseudomonas aeruginosa, 96-well plates; format: cell-based; details: low iron medium
Excerpt: The effect of gallium-desferrioxamine on planktonic Pseudomonas aeruginosa was first examined in a low iron medium. […] When in the stationary phase, Pseudomonas aeruginosa is not effectively killed by antibiotics.
(§1) Bacterial strains and culture conditions. Pseudomonas aeruginosa PAO1 or PAO1 derivatives were used for all experiments except where noted. For flow cell biofilm experiments, strains containing the GFP expression vector pMRP9-1 were used. Both flow cell and disc reactor biofilms were grown in 1% Tryptic Soy Broth (TSB) (Becton Dickinson, Sparks, Md.) as were planktonic cultures. All cultures were incubated at 37° C. unless otherwise indicated. For the static biofilm formation assay we used M63 minimal medium supplemented with glucose (0.2%), arginine (0.4%) and MgSO4 (1 mM).
The minimal inhibitory concentrations (MICs) of various agents were determined by using 96-well plates. Each well contained 100 μl of 1% TSB plus test compound. The inoculum was 5×10^5 Pseudomonas aeruginosa cells per well. To test the effect of agents on survival of stationary phase cells, cultures inoculated with 10^5 cells per ml and incubated for 18 h at 37° C. with aeration were used. The 18-h cultures were centrifuged. The pelleted cells were washed twice and suspended in a volume of fresh medium equal to the original culture volume. […] Viability was determined by plating dilutions on LB agar.

[2] = system: Pseudomonas aeruginosa biofilm; test: Static biofilm formation in microtiter dish wells (crystal violet binding); format: cell-based; details: 18 h
Method: as §1
Pseudomonas aeruginosa biofilms were studied in three different ways. To evaluate gallium-desferrioxamine as a biofilm-blocking agent, the biofilm formation under static growth conditions was measured in microtiter dish wells. Biofilms were grown under static conditions in 96-well microtiter dishes for 18 h at 37° C. in M63 medium with or without added agents as indicated. Attached biomass was stained with crystal violet and the degree of crystal violet staining was measured.
FIG. 2 illustrates the biofilm growth of Pseudomonas aeruginosa cells in polyvinylchloride microtiter dish wells after treatment for 18 hours with desferrioxamine, Ga, gentamicin, or desferrioxamine-Ga. The concentrations used for each compound were 1 μM for DFO, Ga and DFO-Ga, and 0.1 μg/mL for Gm. Attached biofilm biomass was determined by measuring crystal violet binding.

[3] = system: Pseudomonas aeruginosa biofilm; test: Flow cell biofilms, confocal microscopy (GFP, propidium iodide); format: cell-based; details: for killing of cells in six-day old biofilm (propidium iodide staining): 24 h
Method: as §1
The development of biofilms under a continuous flow of medium was followed in microscope observation chambers. To visualize biofilms grown under a continuous flow of medium, flow cells and confocal microscopy with an incubation temperature of 25° C. were used. An agent was added to the medium at the beginning of an experiment to determine whether the agent prevented biofilm formation. To determine the affect of an agent on mature biofilms, the biofilm was allowed to grow for six days prior to addition of the test compound. To discriminate live and dead cells, propidium iodide (PI, 30 μM, Sigma Chemical Co., St. Louis, Mo.) was used.
FIG. 3 compares 3D-reconstructed confocal microscope images of six-day old biofilms of Pseudomonas aeruginosa cells expressing GFP treated for 24 hours with gentamicin (0.1 μg/mL), desferrioxamine (1 μM), gallium (1 μM), and gallium-desferrioxamine (1 μM).
FIGS. 4-8 compare the survival of P. aeruginosa in a six-day old biofilms stained with propidium iodide under with different treatment.

[4] = ferric iron; cited from earlier work
[5] = trivalent aluminium ions; cited from earlier work
[6] = divalent ions; cited from earlier work
[7] = system: stationary phase Pseudomonas aeruginosa cells; test: Survival of stationary phase Pseudomonas aeruginosa cells (plating on LB agar); format: cell-based; details: 24 h
Method: The minimal inhibitory concentrations (MICs) of various agents were determined by using 96-well plates. Each well contained 100 μl of 1% TSB plus test compound. The inoculum was 5×10^5 Pseudomonas aeruginosa cells per well. To test the effect of agents on survival of stationary phase cells, cultures inoculated with 10^5 cells per ml and incubated for 18 h at 37° C. with aeration were used. The 18-h cultures were centrifuged. The pelleted cells were washed twice and suspended in a volume of fresh medium equal to the original culture volume. The cells were incubated at 37° C. for an additional 2 h with shaking and then exposed to the test compounds at the indicated concentrations for 24 h. Viability was determined by plating dilutions on LB agar. FIG. 1 illustrates the survival of stationary phase Pseudomonas aeruginosa cells treated for 24 hours with desferrioxamine (DFO), gentamicin (Gm), gallium (Ga), gallium-desferrioxamine (DFO-Ga), DFO and Gm, Ga and Gm, and DFO-Ga and Gm. The concentrations used for each compound were 0.1 mM (shaded) or 1 mM (dark) for DFO, Ga or DFO-Ga and […] for Gm. […] Because gallium-desferrioxamine and gentamicin exert their antimicrobial effects via different mechanisms, the two agents were combined and the combined treatment results in a six-log reduction in viable cells.

[8] = system: Pseudomonas aeruginosa biofilm; test: Spinning disc reactor biofilms, viable cell counts; format: cell-based; details: 24 h
Method: A spinning disc reactor as a third method was used to study biofilms. The biofilms grown under different conditions were tested and the activity of gallium-desferrioxamine against biofilms grown in a spinning disc reactor under continuous flow with high shear was examined. In this system biofilms are grown under a flow of medium and at high shear forces. After 24 h in a flow of medium, the polycarbonate chips with attached biofilm bacteria were removed from the spinning disc and washed 3 times in PBS. All incubations for spinning disc experiments were at 37° C. These biofilms were then exposed to the indicated agents in water for 24 h. Cells that detached from the biofilm during the treatment were enumerated by plating on LB agar. To estimate the number of remaining attached biofilm cells, the discs were placed in 1 ml PBS and the cells were dispersed by using a tissue homogenizer (Brinkman Homogenizer, Westbury, N.Y.). Viable cell numbers were determined by plating on LB agar. […] Furthermore, when gallium-desferrioxamine and gentamicin are used together, viability is reduced by almost 6 logs, leaving only a few viable cells.

[9] = system: P. aeruginosa clinical isolates biofilms; test: Spinning disc reactor biofilms of 15 clinical isolates; format: cell-based, Pseudomonas aeruginosa; details: 24 h
Method: To verify that the sensitivities observed with laboratory strain of P. aeruginosa (PAO1) would hold with other clinical isolates of the bacterium, 15 clinical isolates of the same bacterium obtained from CF, eye and wound infected patients were screened. The group of isolates tested included mucoid strains, and strains with a variety of drug resistance profiles. The spinning-disc biofilm reactor system was utilized. In this system biofilms are grown under a flow of medium and at high shear forces. After 24 h in a flow of medium the polycarbonate chips with attached biofilm bacteria were removed from the spinning disc and washed 3 times in PBS. All incubations for spinning disc experiments were at 37° C. These biofilms were then exposed to Gm (50 μg/ml), DFO-Ga (1 mM) or a combination of gallium-desferrioxamine […] in water for 24 h. To estimate the number of remaining attached biofilm cells, we placed the discs in 1 ml PBS and dispersed the cells by using a tissue homogenizer (Brinkman Homogenizer, Westbury, N.Y.). Viable cell numbers were determined by plating on LB agar. […]

[10] = system: pvdA-GFP iron starvation promoter fusion; test: Iron starvation reporter (pvdA-GFP) fluorescence in PAO1; format: cell-based, Pseudomonas aeruginosa; details: 1 mM, 1 h at 37° C.
Method: To study the effect of DFO-Ga on iron regulation in the cell, a P. aeruginosa PAO1 strain-carrying GFP fused to an iron starvation promoter (pvdA-GFP) was constructed. The promoter is induced under iron limitation. Free living PAO1 carrying pvdA-GFP fusion, i.e., an iron starvation reporter fusion, 10^9 cell/ml in 1% TSB were exposed to […] Ga (1 mM), DFO (1 mM), or DFO-Ga (1 mM) for 1 h at 37° C.

[11] = system: Staphylococcus aureus (MRSA strain) biofilm; test: Spinning disc reactor biofilms of MRSA S. aureus; format: cell-based; details: 1 mM, 24 h
Method: The effect of gallium-desferrioxamine against the drug resistant bacterial was investigated. The efficacy of DFO-Ga against common biofilm pathogens Staphylococcus aureus (MRSA strain) and Escherichia coli was examined. Biofilms were grown using the spinning disc reactor system as above. Spinning disc reactor biofilms with E. coli or MRSA S. aureus were treated for 24 h. The concentration of DFO-Ga in both treatments was (1 mM). In the E. coli treatment, the concentration of Gm was 10 μg/ml and for the combination of DFO-Ga (1 mM) and Gm (10 μg/ml).
As shown FIG. 12B, DFO-Ga was able to reduce the viable Staphylococcus aureus biofilm bacteria by approximately 3 log units.

[12] = systemic treatment, ischemia and reperfusion; cited from earlier work
Pseudomonas aeruginosa [13] = test: Rabbit cornea infection (keratitis) with P. aeruginosa, topical treatment; format: in vivo; details: 0.5% gentamicin eye drops
[14] = topical application, alkali burn; cited from earlier work

For `CC(=O)N(O)CCCCCNC(=O)CCC(=O)N(O)CCCCCNC(=O)CCC(=O)N(O)CCCCCN` [desferrioxamine], the “growth inhibition (highest concentration without inhibition)” value (Pseudomonas aeruginosa [1]) was greater than 1 mM, the biofilm formation ([2]; 1 μM) was “does not affect biofilm formation” and the “killing of cells in six-day old biofilm (propidium iodide staining)” value (“killing of cells in six-day old biofilm” for short) ([3]; 1 mM) was “does not appear to kill cells in mushroom-like structures”. For the same compound, the complex formation constant [4] was 10^31, the complex formation constant [5] was 10^25 and the complex formation constant [6] was ≤ 10^14.

In the case of `CC(=O)N([O-])CCCCCNC(=O)CCC(=O)N([O-])CCCCCNC(=O)CCC(=O)N([O-])CCCCCN.[Ga+3]` [gallium-desferrioxamine], the “minimal inhibitory concentration (MIC)” value (Pseudomonas aeruginosa [1]) is reported as 32 µM, the “killing relative to gentamicin” value ([7]; 1 mM, versus gentamicin 10 μg per ml) is reported as 10-100 times and the biofilm formation ([2]; 1 μM) is reported as “effectively blocked”. The “biofilm formation under continuous flow” value ([3]; 1 μM, flow cell) was “completely blocks biofilm formation”, the “killing of cells in six-day old biofilm” value ([3]; 1 mM) was “causes death of cells throughout the mushroom-like structures” and the “decrease in cell counts” value ([8]; 1 mM) was 3-4 log. The log killing ([9]; DFO-Ga 1 mM) was 3.02 log, the “induction in relative fluorescence compared to non-treated controls” value [10] was “four” and the “reduction of viable Staphylococcus aureus biofilm bacteria” value [11] was “approximately 3 log units”. For the same compound, the “damage to the retina” value [12] was “reduced damage to the retina”.

In the case of `[Ga]` [gallium], the biofilm formation ([2]; 1 μM) is reported as “effectively blocked”, the “killing of cells in six-day old biofilm” value ([3]; 1 mM) is reported as “killing of cells in the outer regions of the biofilm only” and the reduction in fluorescence [10] is reported as “two”.

For gentamicin, the reduction of viability ([7]; gentamicin 10 μg per ml) was “three”, the biofilm formation ([2]; 0.1 μg per ml) was “does not affect biofilm formation” and the “killing of cells in six-day old biofilm” value ([3]; 50 μg/ml) was “killing of cells in the outer regions of the biofilm only”. The “decrease in cell counts” value ([8]; 50 μg/mL) was 2 log, the log killing ([9]; Gm 50 μg/ml) was 0.95 log and the scarring (Pseudomonas aeruginosa [13]) was “significant scarring persists”. The “time to resolution of the infection” value (Pseudomonas aeruginosa [13]) was no more than 120 h.

In the case of zinc-desferrioxamine, the “damage to the retina” value [12] is given as “reduced damage to the retina” and the corneal damage [14] is given as “reduced corneal damage”.
